{
  "source": "patent US20250215460A1",
  "about": "“MICROBIAL […] THE CONVERSION OF CARBOHYDRATES” (Ohio State Innovation Foundation, priority 2022, published 2025)",
  "key": {"[1]": {"test_system": "C. tyrobutyricum Δcat1::adhE2", "test": "Batch fermentations of glucose and xylose in bioreactors at pH 6.0 with methyl viologen", "type": "cell-based, Clostridium tyrobutyricum", "description": "Batch fermentations of glucose and xylose by C. tyrobutyricum Δcat1::adhE2 were studied in bioreactors at pH 6.0 in the presence of methyl viologen (MV) at various concentrations (0 μM, 200 μM, 500 μM, 1000 μM). For glucose fermentation, MV was added at 12 h after inoculation. […] The fermentation time course data are shown in FIGS. 11A-11H and the effects of MV on cell growth and fermentation kinetics are illustrated in FIG. 12. […] Similar trends were also observed with xylose as the substrate at 200 μM MV. […] The results also indicate that biomass hydrolysate sugars including glucose and xylose can be used simultaneously and converted to butanol by engineered C. tyrobutyricum expressing adhE2."}, "[2]": {"test_system": "C. tyrobutyricum Δcat1::adhE2", "test": "Batch fermentation of glucose in serum bottles with methyl viologen added", "type": "cell-based, Clostridium tyrobutyricum", "excerpt": "Artificial electron carriers such as methyl viologen, benzyl viologen and neutral red have been used in solventogenic clostridia to increase butanol production through diverting electron flow towards NADH formation accompanied by decreased hydrogen production. An artificial electron carrier, such as methyl viologen (MV) and benzyl viologen (BV), was used to inhibit hydrogen production and increase NADH pool and butanol production by C. tyrobutyricum expressing adhE2. C. tyrobutyricum Δcat1::adhE2 was cultured in Clostridia Growth Medium (CGM) containing glucose as the carbon source in serum bottles at 37° C. The medium pH was buffered at ˜5.5 with CaCO3. At 24 h after initial seeding the bottles, methyl viologen was added at various concentrations (up to 1000 μM) to study its effects on cell growth and butanol production. […] The highest butanol yield and productivity were obtained at 500 μM MV. Similar results can also be achieved with other electron carriers such as benzyl viologen and neutral red."}},
  "data": [
    {"smiles": "C[n+]1ccc(-c2cc[n+](C)cc2)cc1", "note": "[MV, methyl viologen]", "values": [
      {"measurement": "Toxicity to cells, xylose compared to glucose", "setting": "[1]; bioreactor, pH 6.0", "result": "more toxic to cells grown on xylose"},
      {"measurement": "Effect on product formation with increasing MV concentration", "setting": "[1]; glucose as substrate, MV 0-1000 μM added at 12 h, pH 6.0", "result": "butanol and lactate production increased while acetate and butyrate production decreased"},
      {"measurement": "Effect on cell growth and fermentation", "setting": "[1]; xylose as substrate, 500 μM and 1000 μM MV added at 24 h, pH 6.0", "result": "completely inhibited cell growth and stopped fermentation"},
      {"measurement": "Effect on cell growth and fermentation (figure legend)", "setting": "[1]; xylose fermentation, 500 mM and 1000 mM MV, addition delayed to 24 h", "result": "completely inhibited cell growth and fermentation"},
      {"measurement": "Effect on acetate and butanol production from glucose", "setting": "[2]; MV up to 1000 μM added at 24 h, pH ~5.5, 37° C.", "result": "dramatically reduced acetate production and increased butanol production"},
      {"measurement": "MV concentration at which lactate was also produced as a byproduct", "setting": "[2]; glucose, pH ~5.5", "result": "≥ 200", "unit": "µM"},
      {"measurement": "MV concentration giving the highest butanol yield and productivity", "setting": "[2]; glucose, pH ~5.5", "result": 500, "unit": "µM"}
    ]}
  ]
}
